Laboratory results from US20260015333A1, “COMPOUNDS AND METHODS FOR INHIBITION OF THE EVOLUTION OF […]” (priority 2022, published 2026).

Test system: S. typhimurium ST19
Experiment: Invasion and infection efficiency in HeLa cells
Type: cell-based
Conditions: 31.25 μM ARM-1, compared to untreated WT
Experimental: FIGS. 3A-3C depict how ARM-1 reduces mutation frequency in culture and during infection. FIG. 3A depicts a Luria-Delbruck fluctuation assay with ARM-1 treatment. Single colonies of WT and Δmfd S. typhimurium ST19 were used to inoculate overnight cultures with appropriate antibiotic selection. Cultures were then diluted back to OD600 0.0005 and grown to OD600 0.5 with or without 100 μM ARM-1 treatment. Samples were plated on 80 ng/ml ciprofloxacin and grown overnight, then enumerated the following day. Data shown are the result of a minimum of 50 replicates. FIG. 3B depicts the invasion and infection efficiency in the presence of ARM-1. WT S. typhimurium ST19 in mid-log phase growth was used to infect HeLa cells. Invasion was allowed to proceed for 1 hour before uninternalized bacteria were removed and fresh media applied, containing vehicle control or 31.25 μM ARM-1. At the indicated timepoints, HeLa cells were lysed using 1% Triton-H2O and intracellular bacteria serially diluted and plated on LB for CFU enumeration. FIG. 3C depicts mutation frequency post mammalian cell infection. WT and Δmfd S. typhimurium ST19 were used to infect HeLa cells as described in FIG. 3B. Following infection, intracellular bacteria were harvested and plated on 50 μg/mL 5-fluorocytosine and grown overnight. Mutants were enumerated the following morning. […]

In the case of `Cc1cc(Br)ccc1-c1ccc(CNCCCN(C)C)o1` [ARM-1, N^1-((5-(4-bromo-2-methylphenyl)furan-2-yl)methyl)-N^3,N^3-dimethylpropane-1,3-diamine], the “defect in invasion or proliferation in HeLa cells” value is reported as “Neither the Δmfd mutant nor ARM-1 or solvent-treated wild-type or Δmfd strains show a defect in invasion or proliferation”.
